In patent US6737383B1, “Herbicidal oxadiazolidines” (priority 1999, dated 2004):

What was measured:
[1] = test system: purple nutsedge; experiment: Test B pre/postemergence purple nutsedge; format: in vivo, Cyperus rotundus
Summary of the method: (§1)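 Test chemicals in a non-phytotoxic solvent mixture with surfactant were sprayed preemergence onto planted seeds and postemergence onto plants 2 to 18 cm tall (1- to 4-leaf stage). After twelve to sixteen days in a greenhouse, injury was visually rated against untreated controls from 0 (no effect) to 10 (complete control).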

[2] = test system: blackgrass; experiment: Test B pre/postemergence blackgrass; format: in vivo, Alopecurus myosuroides
Summary of the method: as §1

[3] = test system: bedstraw; experiment: Test B pre/postemergence bedstraw; format: in vivo, Galium aparine
Summary of the method: as §1

[4] = test system: cocklebur; experiment: Test B pre/postemergence cocklebur; format: in vivo, Xanthium strumarium
Summary of the method: as §1

[5] = test system: pigweed; experiment: Test B pre/postemergence pigweed; format: in vivo, Amaranthus retroflexus
Summary of the method: as §1

[6] = test system: giant foxtail; experiment: Test B pre/postemergence giant foxtail; format: in vivo, Setaria faberii
Summary of the method: as §1

[7] = test system: sugar beet; experiment: Test B pre/postemergence sugar beet; format: in vivo, Beta vulgaris
Summary of the method: as §1

[8] = test system: rape; experiment: Test B pre/postemergence rape; format: in vivo, Brassica napus
Summary of the method: as §1

[9] = test system: wheat; experiment: Test B pre/postemergence wheat; format: in vivo, Triticum aestivum
Summary of the method: as §1

[10] = test system: wild oat; experiment: Test B pre/postemergence wild oat; format: in vivo, Avena fatua
Summary of the method: as §1

[11] = test system: surinam grass; experiment: Test B pre/postemergence surinam grass; format: in vivo, Brachiaria decumbens
Summary of the method: as §1

[12] = test system: velvetleaf; experiment: Test B pre/postemergence velvetleaf; format: in vivo, Abutilon theophrasti
Summary of the method: as §1

[13] = test system: crabgrass; experiment: Test B pre/postemergence crabgrass; format: in vivo, Digitaria sanguinalis
Summary of the method: as §1

[14] = test system: morningglory; experiment: Test B pre/postemergence morningglory; format: in vivo, Ipomoea hederacea
Summary of the method: as §1

[15] = test system: corn; experiment: Test B pre/postemergence corn; format: in vivo, Zea mays
Summary of the method: as §1

[16] = test system: soybean; experiment: Test B pre/postemergence soybean; format: in vivo, Glycine max
Summary of the method: as §1

[17] = Postemergence, Rate 62 g/ha, scale of 0 to 10, 0 is no effect, 10 is complete control
[18] = Postemergence, Rate 125 g/ha, scale 0 to 10, 0 is no effect, 10 is complete control
[19] = Preemergence, Rate 62 g/ha, scale 0 to 10 (0 no effect, 10 complete control)
[20] = Preemergence, Rate 125 g/ha, scale 0 to 10, 0 is no effect, 10 is complete control
[21] = Rate 250 g/ha, Postemergence, scale of 0 to 10 where 0 is no effect and 10 is complete control
[22] = Postemergence, Rate 500 g/ha, scale of 0 to 10 where 0 is no effect and 10 is complete control
[23] = Preemergence, Rate 500 g/ha, scale of 0 to 10 where 0 is no effect and 10 is complete control

## CCOCn1c(=O)on(C(=O)N(c2ccccc2)C(C)C)c1=O [Compound 563]
[1]; [17]
  Nutsedge plant response rating: 0
[1]; [18]
  Nutsedge plant response rating: 0
[1]; [19]
  Nutsedge plant response rating: 0
[1]; [20]
  Nutsedge plant response rating: 0
[1]; Preemergence, Rate 250 g/ha
  Nutsedge plant response rating (0 to 10 scale): 0
[1]; [21]
  Plant response rating, Nutsedge: 0
[2]; [17]
  Blackgrass plant response rating: 0
[2]; [18]
  Blackgrass plant response rating: 0
[2]; [22]
  Plant response rating, Blackgrass: 4
[2]; [19]
  Blackgrass plant response rating: 2
[2]; [20]
  Blackgrass plant response rating: 8
[2]; Preemergence, Rate 250 g/ha
  Blackgrass plant response rating (0 to 10 scale): 9
[2]; [23]
  Blackgrass plant response rating: 9
[2]; [21]
  Plant response rating, Blackgrass: 4
[3]; [17]
  Bedstraw plant response rating: 0
[3]; [18]
  Bedstraw plant response rating: 0
[3]; [22]
  Plant response rating, Bedstraw: 0
[3]; [19]
  Bedstraw plant response rating: 0
[3]; [20]
  Bedstraw plant response rating: 0
[3]; Preemergence, Rate 250 g/ha
  Bedstraw plant response rating (0 to 10 scale): 0
[3]; [23]
  Bedstraw plant response rating: 0
[4]; [17]
  Cocklebur plant response rating: 0
[4]; [18]
  Cocklebur plant response rating: 0
[4]; [22]
  Plant response rating, Cocklebur: 2
[4]; [19]
  Cocklebur plant response rating: 0
[4]; [20]
  Cocklebur plant response rating: 0
[4]; Preemergence, Rate 250 g/ha
  Cocklebur plant response rating (0 to 10 scale): 0
[4]; [23]
  Cocklebur plant response rating: 2
[4]; [21]
  Plant response rating, Cocklebur: 0
[5]; [17]
  Redroot pigweed plant response rating: 0
[5]; [22]
  Plant response rating, Redroot pigweed: 5
[5]; [19]
  Redroot pigweed plant response rating: 4
[5]; [20]
  Redroot pigweed plant response rating: 9
[5]; Preemergence, Rate 250 g/ha
  Redroot pigweed plant response rating (0 to 10 scale): 9
[5]; [23]
  Redroot pigweed plant response rating: 9
[5]; [21]
  Plant response rating, Redroot pigweed: 5
[6]; [17]
  Giant foxtail plant response rating: 6
[6]; [18]
  Giant foxtail plant response rating: 8
[6]; [22]
  Plant response rating, Giant foxtail: 9
[6]; [19]
  Giant foxtail plant response rating: 9
[6]; [20]
  Giant foxtail plant response rating: 9
[6]; Preemergence, Rate 250 g/ha
  Giant foxtail plant response rating (0 to 10 scale): 10
[6]; [23]
  Giant foxtail plant response rating: 10
[6]; [21]
  Plant response rating, Giant foxtail: 8
[7]; [17]
  Sugarbeets plant response rating: 0
[7]; [22]
  Plant response rating, Sugarbeets: 0
[7]; [19]
  Sugarbeets plant response rating: 2
[7]; [20]
  Sugarbeets plant response rating: 3
[7]; Preemergence, Rate 250 g/ha
  Sugarbeets plant response rating (0 to 10 scale): 3
[7]; [23]
  Sugarbeets plant response rating: 4
[7]; [21]
  Plant response rating, Sugarbeets: 0
[8]; [17]
  Rape plant response rating: 0
[8]; [18]
  Rape plant response rating: 0
[8]; [22]
  Plant response rating, Rape: 5
[8]; [19]
  Rape plant response rating: 0
[8]; [20]
  Rape plant response rating: 4
[8]; Preemergence, Rate 250 g/ha
  Rape plant response rating (0 to 10 scale): 9
[8]; [23]
  Rape plant response rating: 9
[8]; [21]
  Plant response rating, Rape: 5
[9]; [17]
  Wheat plant response rating: 0
[9]; [22]
  Plant response rating, Wheat: 0
[9]; [19]
  Wheat plant response rating: 3
[9]; [20]
  Wheat plant response rating: 8
[9]; Preemergence, Rate 250 g/ha
  Wheat plant response rating (0 to 10 scale): 9
[9]; [23]
  Wheat plant response rating: 10
[9]; [21]
  Plant response rating, Wheat: 0
[10]; [17]
  Wild oats plant response rating: 0
[10]; [22]
  Plant response rating, Wild oats: 0
[10]; [19]
  Wild oats plant response rating: 2
[10]; [20]
  Wild oats plant response rating: 9
[10]; Preemergence, Rate 250 g/ha
  Wild oats plant response rating (0 to 10 scale): 9
[10]; [23]
  Wild oats plant response rating: 10
[10]; [21]
  Plant response rating, Wild oats: 0
[11]; [17]
  B. signalgrass plant response rating: 0
[11]; [18]
  B. signalgrass plant response rating: 4
[11]; [22]
  Plant response rating, B. signalgrass: 7
[11]; [19]
  B. signalgrass plant response rating: 3
[11]; [20]
  B. signalgrass plant response rating: 9
[11]; Preemergence, Rate 250 g/ha
  B. signalgrass plant response rating (0 to 10 scale, 0 is no effect, 10 is complete control): 9
[11]; [23]
  B. signalgrass plant response rating: 10
[11]; [21]
  Plant response rating, B. signalgrass: 5
[12]; [17]
  Velvetleaf plant response rating: 0
[12]; [22]
  Plant response rating, Velvetleaf: 4
[12]; [19]
  Velvetleaf plant response rating: 3
[12]; [20]
  Velvetleaf plant response rating: 3
[12]; Preemergence, Rate 250 g/ha
  Velvetleaf plant response rating (0 to 10 scale): 6
[12]; [23]
  Velvetleaf plant response rating: 7
[12]; [21]
  Plant response rating, Velvetleaf: 2
[13]; [17]
  Crabgrass plant response rating: 9
[13]; [18]
  Crabgrass plant response rating: 9
[13]; [22]
  Plant response rating, Crabgrass: 9
[13]; [19]
  Crabgrass plant response rating: 8
[13]; [20]
  Crabgrass plant response rating: 9
[13]; Preemergence, Rate 250 g/ha
  Crabgrass plant response rating (0 to 10 scale): 10
[13]; [23]
  Crabgrass plant response rating: 9
[13]; [21]
  Plant response rating, Crabgrass: 8
[14]; [17]
  Morningglory plant response rating: 4
[14]; [18]
  Morningglory plant response rating: 6
[14]; [22]
  Plant response rating, Morningglory: 10
[14]; [19]
  Morningglory plant response rating: 0
[14]; [20]
  Morningglory plant response rating: 0
[14]; Preemergence, Rate 250 g/ha
  Morningglory plant response rating (0 to 10 scale): 0
[14]; [23]
  Morningglory plant response rating: 3
[14]; [21]
  Plant response rating, Morningglory: 10
[15]; [17]
  Corn plant response rating: 0
[15]; [18]
  Corn plant response rating: 0
[15]; [22]
  Plant response rating, Corn: 8
[15]; [19]
  Corn plant response rating: 0
[15]; [20]
  Corn plant response rating: 0
[15]; Preemergence, Rate 250 g/ha
  Corn plant response rating (0 to 10 scale): 4
[15]; [23]
  Corn plant response rating: 9
[15]; [21]
  Plant response rating, Corn: 4
[16]; [17]
  Soybean plant response rating: 5
[16]; [22]
  Plant response rating, Soybean: 5
[16]; [19]
  Soybean plant response rating: 0
[16]; [20]
  Soybean plant response rating: 0
[16]; Preemergence, Rate 250 g/ha
  Soybean plant response rating (0 to 10 scale): 3
[16]; [23]
  Soybean plant response rating: 6
[16]; [21]
  Plant response rating, Soybean: 3
